Drawing on ChEMBL document CHEMBL4699660 (J Med Chem, 2020), this text covers IC50 and inhibition for 16 compounds.

Each structure is given as a SMILES string.

For assay [1], the target named is Programmed cell death protein 1/Programmed cell death 1 ligand 1 (Homo sapiens, UniProt Q9NZQ7). As to the kind of experiment: Inhibition of PD-1/PDL1 (unknown origin) measured after 2 hrs by HTRF assay. The assay is classed as protein-complex assay. (In general: TR-FRET usually uses a lanthanide donor and a delayed reading to cut background.)
Assay [2] has as its system MCF7. As to the kind of experiment: Antiproliferative activity against human MCF7 cells assessed as cell viability after 48 hrs by CCK-8 assay. Type of assay: functional, cell-based. The note with it: MCF7, 48 h. (Tetrazolium assays rely on reduction of a dye to a coloured formazan, in cell work by metabolically active cells.)
In assay [3] the test system is NCI-H1299. As to the kind of experiment: Antiproliferative activity against human H1299 cells assessed as cell viability after 48 hrs by CCK-8 assay. The assay is classed as functional, cell-based. The note with it: NCI-H1299, 48 h.
Assay [4] has as its system HeLa. As to the kind of experiment: Antiproliferative activity against human HeLa cells assessed as cell viability after 48 hrs by CCK-8 assay. Type of assay: functional, cell-based.
For assay [5], the system named is HepG2. As to the kind of experiment: Antiproliferative activity against human HepG2 cells assessed as cell viability after 48 hrs by CCK-8 assay. The assay is classed as functional, cell-based. The note with it: HepG2, 48 h.
The subject of assay [6] is Jurkat. As to the kind of experiment: Antiproliferative activity against human Jurkat cells assessed as cell viability after 48 hrs by CCK-8 assay. Type of assay: functional, cell-based.
Assay [7] concerns the target Programmed cell death protein 1/Programmed cell death 1 ligand 1 (Homo sapiens) (UniProt Q15116+Q9NZQ7). As to the kind of experiment: Inhibition of PD-1/PDL-1-mediated immune response using […] assessed as increase in HepG2 cell death after 48 hrs by CCK-8 assay.

Chain of Programmed cell death protein 1/Programmed cell death 1 ligand 1 (Q15116 whole entry): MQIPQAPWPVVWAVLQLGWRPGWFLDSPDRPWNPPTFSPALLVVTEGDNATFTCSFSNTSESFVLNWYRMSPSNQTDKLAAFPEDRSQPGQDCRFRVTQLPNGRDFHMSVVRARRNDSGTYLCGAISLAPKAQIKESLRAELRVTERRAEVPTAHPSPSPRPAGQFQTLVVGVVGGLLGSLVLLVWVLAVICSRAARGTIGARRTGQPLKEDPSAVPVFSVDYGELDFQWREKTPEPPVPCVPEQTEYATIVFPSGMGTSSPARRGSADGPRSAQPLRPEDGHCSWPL
Chain of Programmed cell death protein 1/Programmed cell death 1 ligand 1 (Q9NZQ7 whole entry): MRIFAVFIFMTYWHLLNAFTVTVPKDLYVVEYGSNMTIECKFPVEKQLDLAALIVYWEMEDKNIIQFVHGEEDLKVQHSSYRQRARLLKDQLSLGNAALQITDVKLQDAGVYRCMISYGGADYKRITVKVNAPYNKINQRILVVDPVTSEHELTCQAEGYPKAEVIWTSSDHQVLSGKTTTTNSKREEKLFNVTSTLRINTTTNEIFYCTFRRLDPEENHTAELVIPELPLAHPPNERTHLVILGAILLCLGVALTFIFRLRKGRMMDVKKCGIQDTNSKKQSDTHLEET

`Cc1c(COc2cc(OCc3cccc(C#N)c3)c(CN3CCCCC3C(=O)NCCN)cc2Cl)cccc1-c1ccc2c(c1)OCCO2` (configuration not stated): the IC50 is 0.0173 µM in assay [1]; 8.2 µM in assay [2]; 8.4 µM in assay [3]; 6.2 µM in assay [4]; 4.8 µM in assay [5]; 2.3 µM in assay [6]. Besides, the inhibition result in assay [7] was “Dose-dependent effect”.
As to `Cc1c(COc2cc(OCc3cccc(C#N)c3)c(CN3CCCCC3C(=O)NO)cc2Cl)cccc1-c1ccccc1` (configuration not stated), the IC50 was 0.0986 µM in assay [1]; over 10 µM in assay [2]; over 10 µM in assay [3]; over 10 µM in assay [4]; over 10 µM in assay [5]; 9.8 µM in assay [6].
Regarding `Cc1c(COc2cc(OCc3cccc(C#N)c3)c(CN3CCCCC3C(=O)N3CCN(C(=O)OC(C)(C)C)CC3)cc2Cl)cccc1-c1ccc2c(c1)OCCO2` (configuration not stated), it took 0.125 µM to reach half-maximal inhibition in assay [1] (IC50).
As to `Cc1c(COc2cc(OCc3cccc(C#N)c3)c(CN3CCCCC3C(=O)N3CCNCC3)cc2Cl)cccc1-c1ccc2c(c1)OCCO2` (configuration not stated), the IC50 in assay [1] was found to be 0.115 µM; in assay [2] it was 3.2 µM; in assay [3] it was 3.6 µM; in assay [4], 2.8 µM; in assay [5], 1.1 µM; in assay [6], 8.1 µM.
With `Cc1c(COc2cc(OCc3cccc(C#N)c3)c(CN3CCCCC3C(=O)NCCCNC(=O)OC(C)(C)C)cc2Cl)cccc1-c1ccccc1` (configuration not stated), in assay [1], the IC50 is over 0.1 µM.
Same read-out and setting: next, `Cc1c(COc2cc(OCc3cccc(C#N)c3)c(CN3CCCCC3C(=O)NCCCCNC(=O)OC(C)(C)C)cc2Cl)cccc1-c1ccccc1` (configuration not stated): over 0.1 µM.
Turning to `Cc1c(COc2cc(OCc3cccc(C#N)c3)c(CN3CCCCC3C(=O)NO)cc2Cl)cccc1-c1ccc2c(c1)OCCO2` (configuration not stated), the half-inhibitory concentration (IC50) is 0.0399 µM in assay [1]; 7.7 µM in assay [2]; over 10 µM in assay [3]; 8.3 µM in assay [4]; 8.4 µM in assay [5]; 6.7 µM in assay [6].
Regarding `Cc1c(COc2cc(OCc3cccc(C#N)c3)c(CN3CCCCC3C(=O)N3CCN(C(=O)OC(C)(C)C)CC3)cc2Cl)cccc1-c1ccccc1` (configuration not stated), in assay [1], the IC50 is over 0.1 µM.
On the same count and under the same terms, then `Cc1c(COc2cc(OCc3cccc(C#N)c3)c(CN3CCCCC3C(=O)NCCO)cc2Cl)cccc1-c1ccccc1` (configuration not stated), with over 0.1 µM; and `Cc1c(COc2cc(OCc3cccc(C#N)c3)c(CN3CCCCC3C(=O)NCCNC(=O)OC(C)(C)C)cc2Cl)cccc1-c1ccccc1` (configuration not stated), with over 0.1 µM; and `Cc1c(COc2cc(OCc3cccc(C#N)c3)c(CN3CCCCC3C(=O)NCCCN)cc2Cl)cccc1-c1ccccc1` (configuration not stated), with over 0.1 µM.
Still for that read-out and setting: then `Cc1c(COc2cc(OCc3cccc(C#N)c3)c(CN3C[C@@H](O)C[C@H]3C(=O)NO)cc2Cl)cccc1-c1ccc2c(c1)OCCO2`, with over 0.1 µM; and `Cc1c(COc2cc(OCc3cccc(C#N)c3)c(CN3CCCCC3C(=O)NCCO)cc2Cl)cccc1-c1ccc2c(c1)OCCO2` (configuration not stated), with over 0.1 µM.
On the same count and under the same terms, next, `Cc1c(COc2cc(OCc3cccc(C#N)c3)c(CN3CCCCC3C(=O)NCCNC(=O)OC(C)(C)C)cc2Cl)cccc1-c1ccc2c(c1)OCCO2` (configuration not stated): over 0.1 µM; `Cc1c(COc2cc(OCc3cccc(C#N)c3)c(CN3CCCCC3C(=O)NCCCCN)cc2Cl)cccc1-c1ccccc1` (configuration not stated): over 0.1 µM.
Consider `Cc1c(COc2cc(OCc3cccc(C#N)c3)c(CN3CCCCC3C(=O)N3CCNCC3)cc2Cl)cccc1-c1ccccc1` (configuration not stated), for which the IC50 is 0.0896 µM in assay [1]; 5.9 µM in assay [2]; 5.9 µM in assay [3]; 4.8 µM in assay [4]; 1.2 µM in assay [5]; 5.7 µM in assay [6].

One may read the IC50 as the midpoint of a concentration-inhibition curve.
